Assay results published in patent US20150073154A1, “Discrete PEG Based Dyes” (EquIP, LLC, priority 2013, published 2015).
Where “and” joins values, the source holds several entries; their conditions need not be identical. Equal values may be shown once. Read-outs that look alike come from different tables or passages of the source.

Legend:
[1] = Conjugation of ICG reagents with IgG: maximal ICG incorporation without losing the protein; format: physicochemical; settings: reaction with MAG in 10% DMAC
Excerpt: The maximal number of ICGs using this reagent that can be incorporated into an IgG without losing the protein is 4-5 ICG/IgG (FIG. 18). A similar number of ICGs from ICG-NHS, the reagent without dPEG, can be substituted into IgG (FIG. 19).
c. Conjugation of ICG-dPEG12-NHS with MAG (Mouse Anti-Goat IgG Antibody)
MAG reacted with different concentrations of ICG-dPEG12-NHS in 10% DMAC
Product purified over two G50 spin columns in PBS
[IgG] and ICG/IgG molar ratios determined from A (770 nm) and A (280) nm
Lose most of protein when [ICG-dPEG12-NHS] in the reaction is ≧0.2 mM
Highest incorporation: ICG/IgG˜5

[2] = target: Human Serum Albumin (HSA) (Homo sapiens, UniProt P02768); assay: Fluorescence increase on addition to 4% HSA solution (HSA complex formation); format: binding
Procedure: ICG is a hydrophobic molecule that forms a tight complex with Human Serum Albumin (HSA). The fluorescence of ICG increased ˜10 fold, as expected, when it was added to a 4% HSA solution. When ICG is conjugated to a protein, it loses its ability to form tight HAS complexes, as confirmed in our experiments where the fluorescence of ICG-IgG (no dPEG) increased by only a factor of ˜2 when added to 4% HSA. We hypothesized that ICG might still be able to bind to HSA when it was bound to IgG through a dPEG12 linker.

[3] = Behaviour of unreacted reagent on spin columns in PBS (aggregation); format: physicochemical; settings: no MAG control
Excerpt: Reacted with MAG but couldn't separate unreacted reagent on spin columns in PBS

[4] = Solubility of ICG-NHS (no dPEG); format: physicochemical; settings: 10% DMAC (our work)
Excerpt: Soluble in 10% DMSO (lit) or DMAC (our work)

[5] = 10% DMSO (lit); cited from earlier work

Sequence of Human Serum Albumin (HSA) (P02768 25-609): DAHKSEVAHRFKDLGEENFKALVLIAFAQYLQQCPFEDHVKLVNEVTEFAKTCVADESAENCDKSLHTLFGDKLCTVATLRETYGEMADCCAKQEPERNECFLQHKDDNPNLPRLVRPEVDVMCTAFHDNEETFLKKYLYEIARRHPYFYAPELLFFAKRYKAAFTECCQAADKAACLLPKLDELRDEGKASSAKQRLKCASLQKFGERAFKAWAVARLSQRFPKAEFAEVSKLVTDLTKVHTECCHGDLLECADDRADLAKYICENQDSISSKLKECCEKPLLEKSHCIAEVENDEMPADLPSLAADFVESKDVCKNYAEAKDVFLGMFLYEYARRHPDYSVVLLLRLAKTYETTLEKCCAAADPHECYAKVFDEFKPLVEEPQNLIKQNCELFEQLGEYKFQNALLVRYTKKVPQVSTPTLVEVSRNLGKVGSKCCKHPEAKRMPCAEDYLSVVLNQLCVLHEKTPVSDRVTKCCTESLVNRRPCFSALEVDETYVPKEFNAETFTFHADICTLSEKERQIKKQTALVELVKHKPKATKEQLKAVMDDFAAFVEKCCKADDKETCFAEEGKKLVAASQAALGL

## dPEG12-NHS ester)-1,1-dimethyl-benzoindoliden-hepta-1,3,5-trienyl-(1,1-dimethyl-benzoindolium butane sulfonate) [ICG-dPEG12-NHS]
[1]
  maximal number of ICGs that can be incorporated into an IgG without losing the protein / highest incorporation: 4-5 ICG/IgG and ~5 ICG/IgG

## CC1(C)C(/C=C/C=C/C=C/C=C2\N(CCCCS(=O)(=O)[O-])c3ccc4ccccc4c3C2(C)C)=[N+](CCCCS(=O)(=O)[O-])c2ccc3ccccc3c21.[Na+] [ICG]
[2]
  increase of fluorescence when added to 4% HSA: ~10 fold

## CC1(C)C(/C=C/C=C/C=C/C=C2\N(CCCCS(=O)(=O)[O-])c3ccc4ccccc4c3C2(C)C)=[N+](CCCCCC(=O)ON2C(=O)CCC2=O)c2ccc3ccccc3c21 [ICG-NHS]
[3]
  aggregation of unreacted reagent: apparently forms aggregates
[4]
  solubility: Soluble
[5]
  solubility: Soluble
